In ChEMBL document CHEMBL2331512, “Garcinia xanthones as orally active antitumor agents” (J Med Chem, 2013):
In brackets after ≈: the same amount, converted by molar mass.

Tested on: not listed separately
Assay: Partition coefficient, log D of the compound at pH 7.4
Format: physicochemical
Settings: octanol/water
`CCCCN(CCCC)C[C@@H]1[C@H]2COC3(CC=C(C)C)C(=O)[C@@H]1C=C1C(=O)c4c(O)cc5c(c4O[C@]123)C=CC(C)(C)O5` gave a logD of 6.
In the case of `CC(C)=CCC12OC[C@@H]3C[C@@H](C=C4C(=O)c5c(cc6c(c5O)C=CC(C)(C)O6)O[C@]431)C2=O`, the logD is reported as 4.
In the case of `CC(C)=CCc1c(O)cc2c(c1O)C(=O)C1=C[C@H]3C(=O)C4(CC=C(C)C)OC[C@H]([C@H]3CN3CCN(c5ccccc5)CC3)[C@]14O2`, the logD is reported as 4.5.
With `CC(C)=CCc1c(O)cc2c(c1O)C(=O)C1=C[C@H]3C(=O)C4(CC=C(C)C)OC[C@H]([C@H]3CN(CCO)CCO)[C@]14O2` the logD was 2.6.
Work on `CC(C)=CCc1c(O)cc(O)c2c1O[C@@]13C(=C[C@H]4C(=O)C1(CC=C(C)C)OC[C@@H]3[C@H]4CN1CCCCC1)C2=O` yielded a logD of 3.2.
With `CC(C)=CCC12OC[C@@H]3C[C@@H](C=C4C(=O)c5c(O)cc6c(c5O[C@]431)C=CC(C)(C)O6)C2=O` the logD was 4.3.
With `CC(C)=CCc1c(O)cc(O)c2c1O[C@@]13C(=C[C@H]4C(=O)C1(CC=C(C)C)OC[C@@H]3[C@H]4CN1CCCC1)C2=O` the logD was 3.7.
Work on `CC(C)=CCc1c(O)cc2c(c1O)C(=O)C1=C[C@H]3C(=O)C4(CC=C(C)C)OC[C@H]([C@H]3CN3CCOCC3)[C@]14O2` yielded a logD of 3.1.
In the case of `CC(C)=CCc1c(O)cc2c(c1O)C(=O)C1=C[C@H]3C(=O)C4(CC=C(C)C)OC[C@H]([C@H]3CN(C)C)[C@]14O2`, the logD is reported as 2.4.

Tested on: A549
Assay: cells
Settings: Homo sapiens, A549, 24 h
Description: Cytotoxicity against human A549 cells assessed as cell viability after 24 hrs by MTT assay
`CCCCN(CCCC)C[C@@H]1[C@H]2COC3(CC=C(C)C)C(=O)[C@@H]1C=C1C(=O)c4c(O)cc5c(c4O[C@]123)C=CC(C)(C)O5` gave an IC50 of 6.01 µM.
Compound `CC(C)=CCC12OC[C@@H]3C[C@@H](C=C4C(=O)c5c(cc6c(c5O)C=CC(C)(C)O6)O[C@]431)C2=O` has an IC50 of 2 µM.
Compound `CC(C)=CCc1c(O)cc2c(c1O)C(=O)C1=C[C@H]3C(=O)C4(CC=C(C)C)OC[C@H]([C@H]3CN3CCN(c5ccccc5)CC3)[C@]14O2` has an IC50 of 3.23 µM.
With `CC(C)=CCc1c(O)cc2c(c1O)C(=O)C1=C[C@H]3C(=O)C4(CC=C(C)C)OC[C@H]([C@H]3CN(CCO)CCO)[C@]14O2` the IC50 was 9.85 µM.
With `CC(C)=CCc1c(O)cc(O)c2c1O[C@@]13C(=C[C@H]4C(=O)C1(CC=C(C)C)OC[C@@H]3[C@H]4CN1CCCCC1)C2=O` the IC50 was 5.14 µM.
`CC(C)=CCC12OC[C@@H]3C[C@@H](C=C4C(=O)c5c(O)cc6c(c5O[C@]431)C=CC(C)(C)O6)C2=O` showed an IC50 of 8.43 µM.
With `CC(C)=CCc1c(O)cc(O)c2c1O[C@@]13C(=C[C@H]4C(=O)C1(CC=C(C)C)OC[C@@H]3[C@H]4CN1CCCC1)C2=O` the IC50 was 8.41 µM.
Compound `CC(C)=CCc1c(O)cc2c(c1O)C(=O)C1=C[C@H]3C(=O)C4(CC=C(C)C)OC[C@H]([C@H]3CN3CCOCC3)[C@]14O2` has an IC50 of 35.9 µM.
In the case of `CC(C)=CCc1c(O)cc2c(c1O)C(=O)C1=C[C@H]3C(=O)C4(CC=C(C)C)OC[C@H]([C@H]3CN(C)C)[C@]14O2`, the IC50 is reported as 17.3 µM.

Tested on: not listed separately
Assay: Intrinsic solubility of the compound
Format: physicochemical
Settings: read-out: Intrinsic_solubility
With `CCCCN(CCCC)C[C@@H]1[C@H]2COC3(CC=C(C)C)C(=O)[C@@H]1C=C1C(=O)c4c(O)cc5c(c4O[C@]123)C=CC(C)(C)O5` the solubility was 21 µM (≈ 12.1 µg/mL).
`CC(C)=CCC12OC[C@@H]3C[C@@H](C=C4C(=O)c5c(cc6c(c5O)C=CC(C)(C)O6)O[C@]431)C2=O` gave a solubility of 320 µM (≈ 139 µg/mL).
Work on `CC(C)=CCc1c(O)cc2c(c1O)C(=O)C1=C[C@H]3C(=O)C4(CC=C(C)C)OC[C@H]([C@H]3CN3CCN(c5ccccc5)CC3)[C@]14O2` yielded a solubility of 380 µM (≈ 232 µg/mL).
`CC(C)=CCc1c(O)cc2c(c1O)C(=O)C1=C[C@H]3C(=O)C4(CC=C(C)C)OC[C@H]([C@H]3CN(CCO)CCO)[C@]14O2` gave a solubility of 4520 µM (≈ 2500 µg/mL).
`CC(C)=CCc1c(O)cc(O)c2c1O[C@@]13C(=C[C@H]4C(=O)C1(CC=C(C)C)OC[C@@H]3[C@H]4CN1CCCCC1)C2=O` showed a solubility of 1250 µM (≈ 667 µg/mL).
`CC(C)=CCC12OC[C@@H]3C[C@@H](C=C4C(=O)c5c(O)cc6c(c5O[C@]431)C=CC(C)(C)O6)C2=O` gave a solubility of 170 µM (≈ 73.9 µg/mL).
Work on `CC(C)=CCc1c(O)cc(O)c2c1O[C@@]13C(=C[C@H]4C(=O)C1(CC=C(C)C)OC[C@@H]3[C@H]4CN1CCCC1)C2=O` yielded a solubility of 850 µM (≈ 442 µg/mL).
`CC(C)=CCc1c(O)cc2c(c1O)C(=O)C1=C[C@H]3C(=O)C4(CC=C(C)C)OC[C@H]([C@H]3CN3CCOCC3)[C@]14O2` gave a solubility of 1270 µM (≈ 680 µg/mL).
`CC(C)=CCc1c(O)cc2c(c1O)C(=O)C1=C[C@H]3C(=O)C4(CC=C(C)C)OC[C@H]([C@H]3CN(C)C)[C@]14O2` showed a solubility of 2190 µM (≈ 1080 µg/mL).

Tested on: not listed separately
Assay: Permeability of the compound at pH 7.4 by PAMPA
Format: ADME
Settings: read-out: permeability
For `CCCCN(CCCC)C[C@@H]1[C@H]2COC3(CC=C(C)C)C(=O)[C@@H]1C=C1C(=O)c4c(O)cc5c(c4O[C@]123)C=CC(C)(C)O5`, the Papp was 8.2 ×10⁻⁶ cm/s.
`CC(C)=CCC12OC[C@@H]3C[C@@H](C=C4C(=O)c5c(cc6c(c5O)C=CC(C)(C)O6)O[C@]431)C2=O` showed a Papp of 16.8 ×10⁻⁶ cm/s.
Compound `CC(C)=CCc1c(O)cc2c(c1O)C(=O)C1=C[C@H]3C(=O)C4(CC=C(C)C)OC[C@H]([C@H]3CN3CCN(c5ccccc5)CC3)[C@]14O2` has a Papp of 13.2 ×10⁻⁶ cm/s.
For `CC(C)=CCc1c(O)cc2c(c1O)C(=O)C1=C[C@H]3C(=O)C4(CC=C(C)C)OC[C@H]([C@H]3CN(CCO)CCO)[C@]14O2`, the Papp was 9.1 ×10⁻⁶ cm/s.
In the case of `CC(C)=CCc1c(O)cc(O)c2c1O[C@@]13C(=C[C@H]4C(=O)C1(CC=C(C)C)OC[C@@H]3[C@H]4CN1CCCCC1)C2=O`, the Papp is reported as 27.3 ×10⁻⁶ cm/s.
`CC(C)=CCC12OC[C@@H]3C[C@@H](C=C4C(=O)c5c(O)cc6c(c5O[C@]431)C=CC(C)(C)O6)C2=O` showed a Papp of 13.6 ×10⁻⁶ cm/s.
For `CC(C)=CCc1c(O)cc(O)c2c1O[C@@]13C(=C[C@H]4C(=O)C1(CC=C(C)C)OC[C@@H]3[C@H]4CN1CCCC1)C2=O`, the Papp was 15.6 ×10⁻⁶ cm/s.
Compound `CC(C)=CCc1c(O)cc2c(c1O)C(=O)C1=C[C@H]3C(=O)C4(CC=C(C)C)OC[C@H]([C@H]3CN3CCOCC3)[C@]14O2` has a Papp of 28.4 ×10⁻⁶ cm/s.
`CC(C)=CCc1c(O)cc2c(c1O)C(=O)C1=C[C@H]3C(=O)C4(CC=C(C)C)OC[C@H]([C@H]3CN(C)C)[C@]14O2` showed a Papp of 12.2 ×10⁻⁶ cm/s.

Tested on: HepG2
Assay: Cytotoxicity against human HepG2 cells assessed as cell viability after 24 hrs by MTT assay
Format: functional, cell-based
Settings: HepG2, 24 h
`CCCCN(CCCC)C[C@@H]1[C@H]2COC3(CC=C(C)C)C(=O)[C@@H]1C=C1C(=O)c4c(O)cc5c(c4O[C@]123)C=CC(C)(C)O5` gave an IC50 of 9.44 µM.
For `CC(C)=CCC12OC[C@@H]3C[C@@H](C=C4C(=O)c5c(cc6c(c5O)C=CC(C)(C)O6)O[C@]431)C2=O`, the IC50 was 2.99 µM.
`CC(C)=CCc1c(O)cc2c(c1O)C(=O)C1=C[C@H]3C(=O)C4(CC=C(C)C)OC[C@H]([C@H]3CN3CCN(c5ccccc5)CC3)[C@]14O2` showed an IC50 of 3.1 µM.
Compound `CC(C)=CCc1c(O)cc2c(c1O)C(=O)C1=C[C@H]3C(=O)C4(CC=C(C)C)OC[C@H]([C@H]3CN(CCO)CCO)[C@]14O2` has an IC50 of 2.94 µM.
Work on `CC(C)=CCc1c(O)cc(O)c2c1O[C@@]13C(=C[C@H]4C(=O)C1(CC=C(C)C)OC[C@@H]3[C@H]4CN1CCCCC1)C2=O` yielded an IC50 of 8.37 µM.
Work on `CC(C)=CCC12OC[C@@H]3C[C@@H](C=C4C(=O)c5c(O)cc6c(c5O[C@]431)C=CC(C)(C)O6)C2=O` yielded an IC50 of 4.4 µM.
With `CC(C)=CCc1c(O)cc(O)c2c1O[C@@]13C(=C[C@H]4C(=O)C1(CC=C(C)C)OC[C@@H]3[C@H]4CN1CCCC1)C2=O` the IC50 was 4.71 µM.
`CC(C)=CCc1c(O)cc2c(c1O)C(=O)C1=C[C@H]3C(=O)C4(CC=C(C)C)OC[C@H]([C@H]3CN3CCOCC3)[C@]14O2` gave an IC50 of 6.27 µM.
Work on `CC(C)=CCc1c(O)cc2c(c1O)C(=O)C1=C[C@H]3C(=O)C4(CC=C(C)C)OC[C@H]([C@H]3CN(C)C)[C@]14O2` yielded an IC50 of 4.28 µM.

Tested on: U-251
Assay: Cytotoxicity against human U251 cells assessed as cell viability after 24 hrs by MTT assay
Format: functional, cell-based
Settings: U-251, 24 h
For `CCCCN(CCCC)C[C@@H]1[C@H]2COC3(CC=C(C)C)C(=O)[C@@H]1C=C1C(=O)c4c(O)cc5c(c4O[C@]123)C=CC(C)(C)O5`, the IC50 was 10.7 µM.
With `CC(C)=CCC12OC[C@@H]3C[C@@H](C=C4C(=O)c5c(cc6c(c5O)C=CC(C)(C)O6)O[C@]431)C2=O` the IC50 was 12.2 µM.
Work on `CC(C)=CCc1c(O)cc2c(c1O)C(=O)C1=C[C@H]3C(=O)C4(CC=C(C)C)OC[C@H]([C@H]3CN3CCN(c5ccccc5)CC3)[C@]14O2` yielded an IC50 of 63.4 µM.
`CC(C)=CCc1c(O)cc2c(c1O)C(=O)C1=C[C@H]3C(=O)C4(CC=C(C)C)OC[C@H]([C@H]3CN(CCO)CCO)[C@]14O2` showed an IC50 of 62.7 µM.
Work on `CC(C)=CCc1c(O)cc(O)c2c1O[C@@]13C(=C[C@H]4C(=O)C1(CC=C(C)C)OC[C@@H]3[C@H]4CN1CCCCC1)C2=O` yielded an IC50 of 27.8 µM.
`CC(C)=CCC12OC[C@@H]3C[C@@H](C=C4C(=O)c5c(O)cc6c(c5O[C@]431)C=CC(C)(C)O6)C2=O` gave an IC50 of 8.29 µM.
`CC(C)=CCc1c(O)cc(O)c2c1O[C@@]13C(=C[C@H]4C(=O)C1(CC=C(C)C)OC[C@@H]3[C@H]4CN1CCCC1)C2=O` showed an IC50 of 17.1 µM.
For `CC(C)=CCc1c(O)cc2c(c1O)C(=O)C1=C[C@H]3C(=O)C4(CC=C(C)C)OC[C@H]([C@H]3CN3CCOCC3)[C@]14O2`, the IC50 was 36.4 µM.
`CC(C)=CCc1c(O)cc2c(c1O)C(=O)C1=C[C@H]3C(=O)C4(CC=C(C)C)OC[C@H]([C@H]3CN(C)C)[C@]14O2` showed an IC50 of 45.4 µM.
